# Test results reported in PubChem BioAssay AID1845194 (Molecular Pharmacology Branch, DTP, NCI, 2023).
# System: 287954-098-R-J1 tumor spheroid viability
# Assay: Anticancer human tumor 287954-098-R-J1 patient-derived Ewing sarcoma cell line growth inhibition
# Conditions: spheroids with HUVEC and MSC; for viability, T/C: stronger effect = lower value
# Method in brief: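 Complex tumor spheroids combined malignant cells with endothelial cells and mesenchymal stem cells. DNA-damaging drugs and DNA repair inhibitors were tested alone and in combination, at half-log dilutions down from clinical Cmax (top 10 microM if Cmax unknown), 0.25% DMSO final.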
# 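Also: spheroids exposed to compound for 7 days before viability readout.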
# 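For viability, T/C in this document: luminescent signal taken as surrogate of viable cell content; 100% = DMSO vehicle control viability and lower means growth inhibition.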
smiles,measurement,setting,value
Cc1sc2c(c1C)C(c1ccc(Cl)cc1)=NC(CC(=O)Nc1ccc(O)cc1)c1nnc(C)n1-2 (configuration not stated) + CC[C@@]1(O)C(=O)OCc2c1cc1n(c2=O)Cc2cc3c(CN(C)C)c(O)ccc3nc2-1,IC50,"curve of first compound, second compound 0.003 µM",555 nM
same,IC50,"curve of first compound, second compound 0.00949 µM",185 nM
same,IC50,"curve of first compound, second compound 0.03 µM",< 9.49 nM
same,IC50,"curve of first compound, second compound 0.0949 µM",< 9.49 nM
same,IC50,"curve of first compound, second compound 0.3 µM",< 9.49 nM
same,"viability, T/C","second compound 0.003 µM, first compound 0.00949 µM",110%
same,"viability, T/C","second compound 0.003 µM, first compound 0.03 µM",117%
same,"viability, T/C","second compound 0.003 µM, first compound 0.0949 µM",123%
same,"viability, T/C","second compound 0.003 µM, first compound 0.3 µM",90.1%
same,"viability, T/C","second compound 0.003 µM, first compound 0.949 µM",15.2%
same,"viability, T/C","second compound 0.003 µM, first compound 3 µM",1.91%
same,"viability, T/C","second compound 0.00949 µM, first compound 0.00949 µM",117%
same,"viability, T/C","second compound 0.00949 µM, first compound 0.03 µM",112%
same,"viability, T/C","second compound 0.00949 µM, first compound 0.0949 µM",106%
same,"viability, T/C","second compound 0.00949 µM, first compound 0.3 µM",9.5%
same,"viability, T/C","second compound 0.00949 µM, first compound 0.949 µM",1.8%
same,"viability, T/C","second compound 0.00949 µM, first compound 3 µM",1.47%
same,"viability, T/C","second compound 0.03 µM, first compound 0.00949 µM",2.84%
same,"viability, T/C","second compound 0.03 µM, first compound 0.03 µM",3%
same,"viability, T/C","second compound 0.03 µM, first compound 0.0949 µM",1.99%
same,"viability, T/C","second compound 0.03 µM, first compound 0.3 µM",1.63%
same,"viability, T/C","second compound 0.03 µM, first compound 0.949 µM",1.17%
same,"viability, T/C","second compound 0.03 µM, first compound 3 µM",1.04%
same,"viability, T/C","second compound 0.0949 µM, first compound 0.00949 µM",1.98%
same,"viability, T/C","second compound 0.0949 µM, first compound 0.03 µM",2.06%
same,"viability, T/C","second compound 0.0949 µM, first compound 0.0949 µM",1.8%
same,"viability, T/C","second compound 0.0949 µM, first compound 0.3 µM",1.32%
same,"viability, T/C","second compound 0.0949 µM, first compound 0.949 µM",1.09%
same,"viability, T/C","second compound 0.0949 µM, first compound 3 µM",1.22%
same,"viability, T/C","second compound 0.3 µM, first compound 0.00949 µM",1.94%
same,"viability, T/C","second compound 0.3 µM, first compound 0.03 µM",2.02%
same,"viability, T/C","second compound 0.3 µM, first compound 0.0949 µM",1.68%
same,"viability, T/C","second compound 0.3 µM, first compound 0.3 µM",1.25%
same,"viability, T/C","second compound 0.3 µM, first compound 0.949 µM",1.2%
same,"viability, T/C","second compound 0.3 µM, first compound 3 µM",1%
CC[C@@]1(O)C(=O)OCc2c1cc1n(c2=O)Cc2cc3c(CN(C)C)c(O)ccc3nc2-1,"viability, T/C",compound 0.003 µM,104% [middle of 10 runs]
same,"viability, T/C",compound 0.00949 µM,101% [middle of 10 runs]
same,"viability, T/C",compound 0.03 µM,15.2% [middle of 10 runs]
same,"viability, T/C",compound 0.0949 µM,1.9% [middle of 9 runs]
same,"viability, T/C",compound 0.3 µM,1.83% [middle of 10 runs]
same,IC50,"compound alone, run of 10/17/2019",19.4 nM [middle of 5 runs]
same,IC50,"compound alone, run of 10/25/2019",18.8 nM [middle of 4 runs]
O=C(c1cc(Cc2n[nH]c(=O)c3ccccc23)ccc1F)N1CCN(C(=O)C2CC2)CC1 + Cn1nnc2c(C(N)=O)ncn2c1=O,IC50,"curve of first compound, second compound 1 µM",20600 nM
same,IC50,"curve of first compound, second compound 3.16 µM",20900 nM
same,IC50,"curve of first compound, second compound 10 µM",10400 nM
same,IC50,"curve of first compound, second compound 31.6 µM",3410 nM
same,IC50,"curve of first compound, second compound 100 µM",621 nM
same,"viability, T/C","second compound 1 µM, first compound 0.0949 µM",97.5%
same,"viability, T/C","second compound 1 µM, first compound 0.3 µM",97.2%
same,"viability, T/C","second compound 1 µM, first compound 0.949 µM",106%
same,"viability, T/C","second compound 1 µM, first compound 3 µM",95.1%
same,"viability, T/C","second compound 1 µM, first compound 9.49 µM",86.2%
same,"viability, T/C","second compound 1 µM, first compound 30 µM",32.5%
same,"viability, T/C","second compound 3.16 µM, first compound 0.0949 µM",104%
same,"viability, T/C","second compound 3.16 µM, first compound 0.3 µM",101%
same,"viability, T/C","second compound 3.16 µM, first compound 0.949 µM",98.2%
same,"viability, T/C","second compound 3.16 µM, first compound 3 µM",105%
same,"viability, T/C","second compound 3.16 µM, first compound 9.49 µM",85.1%
same,"viability, T/C","second compound 3.16 µM, first compound 30 µM",34%
same,"viability, T/C","second compound 10 µM, first compound 0.0949 µM",107%
same,"viability, T/C","second compound 10 µM, first compound 0.3 µM",107%
same,"viability, T/C","second compound 10 µM, first compound 0.949 µM",93.6%
same,"viability, T/C","second compound 10 µM, first compound 3 µM",99%
same,"viability, T/C","second compound 10 µM, first compound 9.49 µM",53.7%
same,"viability, T/C","second compound 10 µM, first compound 30 µM",4.76%
same,"viability, T/C","second compound 31.6 µM, first compound 0.0949 µM",107%
same,"viability, T/C","second compound 31.6 µM, first compound 0.3 µM",103%
same,"viability, T/C","second compound 31.6 µM, first compound 0.949 µM",106%
same,"viability, T/C","second compound 31.6 µM, first compound 3 µM",56%
same,"viability, T/C","second compound 31.6 µM, first compound 9.49 µM",2.11%
same,"viability, T/C","second compound 31.6 µM, first compound 30 µM",1.97%
same,"viability, T/C","second compound 100 µM, first compound 0.0949 µM",104%
same,"viability, T/C","second compound 100 µM, first compound 0.3 µM",88.5%
same,"viability, T/C","second compound 100 µM, first compound 0.949 µM",27.7%
same,"viability, T/C","second compound 100 µM, first compound 3 µM",2.13%
same,"viability, T/C","second compound 100 µM, first compound 9.49 µM",1.91%
same,"viability, T/C","second compound 100 µM, first compound 30 µM",1.8%
